Assay: Stability test: storage in stoppered vessels at 60° C. under a nitrogen atmosphere, content by HPLC
Assay type: physicochemical
Details: for Stability (Residual rate): based on initial content (100%)
Protocol: In the stability test, crystals B, C and D of the present invention prepared in Examples 1, 2 and 4, respectively and the amorphous powder (Amorphous A) of compound of general formula (I) described in Example 1 (1d) of the Japanese Patent No. 2569251 were used as reference. These compounds were placed in stoppered vessels separately and stored at 60° C. under a nitrogen atmosphere for 17 days, and the content of these compounds was measured on 5, 10 and 17 days after the initiation of the storage.
The content of these compounds was determined quantitatively with high performance liquid chromatography (HPLC), and the rate of the remaining compounds (%) was calculated by the content of Compound (I) determined at each sampling point based on the initial content (100%) determined immediately before the storage.

[1] = 5 days after the initiation of storage
[2] = 10 days after the initiation of storage
[3] = 17 days after the initiation of storage

## CCCCCCCCCCCCCCCC(=O)Nc1ccn([C@@H]2O[C@H](CO)[C@@H](O)[C@@H]2C#N)c(=O)n1 [Amorphous A, 2′-cyano-2′-deoxy-N^4-palmitoyl-1-β-D-arabinofuranosylcytosine, reference compound]
  stability (in words): extremely low
[1]
  Stability (Residual rate): 92.7%
[2]
  Stability (Residual rate): 78.6%
[3]
  Stability (Residual rate): 62.5%
17 days after the initiation of storage, listed as amorphous A
  Stability (Residual rate): 62.5%

## CCCCCCCCCCCCCCCC(=O)Nc1ccn([C@@H]2O[C@H](CO)[C@@H](O)[C@@H]2C#N)c(=O)n1 [Crystal B, 2′-cyano-2′-deoxy-N^4-palmitoyl-1-β-D-arabinofuranosylcytosine]
[1]
  Stability (Residual rate): 101.0%
[2]
  Stability (Residual rate): 100.3%
[3]
  Stability (Residual rate): 100.4%
17 days after the initiation of storage, listed as crystal B
  Stability (Residual rate): 100%

## CCCCCCCCCCCCCCCC(=O)Nc1ccn([C@@H]2O[C@H](CO)[C@@H](O)[C@@H]2C#N)c(=O)n1 [Crystal C, 2′-cyano-2′-deoxy-N^4-palmitoyl-1-β-D-arabinofuranosylcytosine]
[1]
  Stability (Residual rate): 101.0%
[2]
  Stability (Residual rate): 100.4%
[3]
  Stability (Residual rate): 100.1%
17 days after the initiation of storage, listed as crystal C
  Stability (Residual rate): 100%

## CCCCCCCCCCCCCCCC(=O)Nc1ccn([C@@H]2O[C@H](CO)[C@@H](O)[C@@H]2C#N)c(=O)n1 [Crystal D, 2′-cyano-2′-deoxy-N^4-palmitoyl-1-β-D-arabinofuranosylcytosine]
[1]
  Stability (Residual rate): 99.9%
[2]
  Stability (Residual rate): 98.3%
[3]
  Stability (Residual rate): 98.4%
17 days after the initiation of storage, listed as crystal D
  Stability (Residual rate): 98.4%
